# Experimental data as given in US20030199692A1, “Propanoic acid derivatives that inhibit the binding of integrins to their receptors” (priority 1999, published 2003).
# How the values were obtained:
# [1] = target: T1, α4β1 integrin (Homo sapiens, UniProt P05556+P13612); experiment: Inhibition of adhesion of calcein AM-labeled Ramos cells to CS1 (fibronectin) peptide-conjugated ovalbumin; format: cell-based; conditions: Ramos cell adhesion to CS1-conjugated ovalbumin, 30 minutes at 37° C.
# T1 construct: endogenous in cells; host or cells: Ramos cells
# Method in brief: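 Calcein AM-labeled Ramos cells (2.5×10^5/well) added with or without compound to plates coated with CS1 peptide-ovalbumin conjugate in TBS containing 1 mM each MgCl2, CaCl2, MnCl2; 30 min at 37° C. Adherent cells lysed and quantified fluorometrically after washes; IC50 as dose for 50% inhibition, or percent inhibition at 100 μM.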
# T1 sequence (P13612 34-1032): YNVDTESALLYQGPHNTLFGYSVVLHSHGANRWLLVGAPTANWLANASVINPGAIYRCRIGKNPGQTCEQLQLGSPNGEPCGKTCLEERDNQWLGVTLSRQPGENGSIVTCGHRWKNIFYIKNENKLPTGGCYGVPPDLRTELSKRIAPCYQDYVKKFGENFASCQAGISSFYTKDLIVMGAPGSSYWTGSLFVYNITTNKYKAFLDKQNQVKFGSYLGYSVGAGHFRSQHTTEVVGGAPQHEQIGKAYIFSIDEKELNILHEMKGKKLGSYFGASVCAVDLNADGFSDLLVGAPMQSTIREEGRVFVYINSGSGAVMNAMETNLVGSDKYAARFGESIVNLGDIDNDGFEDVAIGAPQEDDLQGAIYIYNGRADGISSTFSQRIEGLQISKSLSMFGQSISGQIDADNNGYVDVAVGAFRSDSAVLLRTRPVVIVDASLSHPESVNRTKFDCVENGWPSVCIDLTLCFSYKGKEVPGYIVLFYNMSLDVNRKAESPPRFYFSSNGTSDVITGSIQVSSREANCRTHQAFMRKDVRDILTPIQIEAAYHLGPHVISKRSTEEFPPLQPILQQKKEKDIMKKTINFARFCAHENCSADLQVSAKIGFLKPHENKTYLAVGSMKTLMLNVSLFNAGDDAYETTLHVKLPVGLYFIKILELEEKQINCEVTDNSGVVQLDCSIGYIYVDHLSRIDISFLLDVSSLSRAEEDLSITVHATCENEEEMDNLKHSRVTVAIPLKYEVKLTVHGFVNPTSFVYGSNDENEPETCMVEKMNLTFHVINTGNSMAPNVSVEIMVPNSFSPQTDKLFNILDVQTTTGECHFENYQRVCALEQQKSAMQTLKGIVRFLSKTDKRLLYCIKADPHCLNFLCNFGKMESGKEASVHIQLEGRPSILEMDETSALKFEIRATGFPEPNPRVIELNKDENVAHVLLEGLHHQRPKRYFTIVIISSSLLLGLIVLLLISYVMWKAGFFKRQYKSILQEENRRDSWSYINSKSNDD
# T1 sequence (P05556 21-798): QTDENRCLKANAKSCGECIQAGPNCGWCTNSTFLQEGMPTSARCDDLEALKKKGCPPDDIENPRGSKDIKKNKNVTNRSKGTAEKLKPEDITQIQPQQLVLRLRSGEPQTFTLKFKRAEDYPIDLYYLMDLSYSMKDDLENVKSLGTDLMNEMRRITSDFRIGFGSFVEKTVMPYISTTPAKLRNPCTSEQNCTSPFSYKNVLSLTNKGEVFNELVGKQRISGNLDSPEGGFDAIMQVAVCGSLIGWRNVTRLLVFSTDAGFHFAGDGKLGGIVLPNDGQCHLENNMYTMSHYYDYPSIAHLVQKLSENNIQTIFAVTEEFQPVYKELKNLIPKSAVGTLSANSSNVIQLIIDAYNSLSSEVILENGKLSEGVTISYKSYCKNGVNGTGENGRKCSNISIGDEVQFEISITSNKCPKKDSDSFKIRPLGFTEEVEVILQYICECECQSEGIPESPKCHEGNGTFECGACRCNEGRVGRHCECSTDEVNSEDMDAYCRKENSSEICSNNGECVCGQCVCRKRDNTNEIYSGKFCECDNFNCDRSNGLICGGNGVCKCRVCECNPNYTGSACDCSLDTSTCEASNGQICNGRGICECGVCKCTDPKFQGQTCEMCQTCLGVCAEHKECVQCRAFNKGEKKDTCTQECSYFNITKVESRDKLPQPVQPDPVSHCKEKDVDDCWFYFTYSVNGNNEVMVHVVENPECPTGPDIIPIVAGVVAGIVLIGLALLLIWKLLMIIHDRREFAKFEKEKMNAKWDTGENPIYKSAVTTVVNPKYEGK
IC50 ([1]; Table 3) [nM],melting point [°C],IC50 ([1]; Table 4) [nM],Structure (SMILES)
20000,53 to 55,–,"CCCCC(C(=O)N[C@@H](CC(=O)O)c1ccc2c(c1)OCO2)N1C(=O)N(Cc2ccccc2)C(=O)C1(C)C (stereo partly drawn) [(3S)-3-(1,3-benzodioxol-5-yl)-3-({2-[5,5-dimethyl-2,4-dioxo-3-(phenylmethyl)tetrahydro-1H-imidazol-1-yl]hexanoyl}amino)propanoic acid]"
60,–,–,"CCCC(C(=O)N[C@@H](CC(=O)O)c1ccc2c(c1)OCO2)n1cccc(Cc2ccccc2)c1=O (stereo partly drawn) [(3S)-3-(1,3-benzodioxol-5-yl)-3-({2-[2-oxo-3-(phenylmethyl)-1(2H)-pyridinyl]pentanoyl}amino)propanoic acid]"
–,–,300,"CCCCC(C(=O)N[C@@H](CC(=O)O)c1ccc(OC)c(C)c1C)n1cccc(Cc2ccccc2)c1=O (stereo partly drawn) [(3S)-3-{[2-(3-benzyl-2-oxopyridin-1(2H)-yl)hexanoyl]amino}-3-(4-methoxy-2,3-dimethylphenyl)propanoic acid]"
–,–,300,"CCCCC(C(=O)N[C@@H](CC(=O)O)c1cc(C)ccc1C)n1cc(C)cc(Cc2ccccc2)c1=O (stereo partly drawn) [(3S)-3-{[2-(3-benzyl-5-methyl-2-oxopyridin-1(2H)-yl)hexanoyl]amino}-3-(2,5-dimethylphenyl)propanoic acid]"
30,–,–,"CCC(C(=O)N[C@@H](CC(=O)O)c1ccc2c(c1)OCO2)n1cccc(Cc2ccccc2)c1=O (stereo partly drawn) [(3S)-3-(1,3-benzodioxol-5-yl)-3-({2-[2-oxo-3-(phenylmethyl)-1(2H)-pyridinyl]butanoyl}amino)propanoic acid]"
–,–,40,CCCCC(C(=O)N[C@@H](CC(=O)O)c1ccc(CC)cc1)n1cc(C)cc(Cc2ccccc2)c1=O (stereo partly drawn) [(3S)-3-(4-ethylphenyl)-3-({2-[5-methyl-2-oxo-3-(phenylmethyl)-1(2H)-pyridinyl]hexanoyl}amino)propanoic acid]
–,–,130,"CCCCC(C(=O)N[C@@H](CC(=O)O)c1ccc(C)c(C)c1)n1cc(C)cc(Cc2ccccc2)c1=O (stereo partly drawn) [(3S)-3-{[2-(3-benzyl-5-methyl-2-oxopyridin-1(2H)-yl)hexanoyl]amino}-3-(3,4-dimethylphenyl)propanoic acid]"
–,–,63,"CCCCC(C(=O)N[C@@H](CC(=O)O)c1ccc2c(c1)CCC2)n1cc(C)cc(Cc2ccccc2)c1=O (stereo partly drawn) [(3S)-3-(2,3-dihydro-1H-inden-5-yl)-3-({2-[5-methyl-2-oxo-3-(phenylmethyl)-1(2H)-pyridinyl]hexanoyl}amino)propanoic acid]"
